Measurements taken from US6013666A, “Oxirane carboxylic acid derivative and its manufacturing method” (Jew; Sang Sup, priority 1996, dated 2000).

How the values were obtained:
[1] = system: male diabetes-induced Sprague-Dawley rats; assay: Blood glucose lowering effects on streptozotocin diabetes-induced rats; assay type: in vivo; conditions: Rattus norvegicus; STZ diabetes-induced rats, 50 mg/kg oral; measured at 90, 120 and 180 mins, smallest values taken; read-out: Blood glucose lowering rate %
Method: Blood Glucose Lowering Effects of the Compounds Prepared by the Procedures of Example 1~6, 11~18
Two groups of male diabetes-induced Sprague-Dawley rats (each of 4-5 rats weighing about 250 g) were used for this experiment. 45 mg/kg of streptozotocin (STZ) dissolved in 0.1M citrate buffer (pH 4.5, 0-4° C.) was injected to the tail vein of fasted rats for 1 day. After elapse of 7 days, their blood glucose concentration were measured and animals having the blood serum concentration of more than 350 mg/dl were used as diabetes-induced rats for this experiment. The rats were intravenously administered at a daily dose of 1 ml/kg, while the normal control group received equal volume of 0.1M citrate buffer.
7 days after being treated with streptozotocin, diabetes-induced rats were orally administered at a dose of 50 mg/kg of the compounds prepared by the procedures of Examples 1-6, 11~18. Then, at time intervals of 90 mins, 120 mins and 180 mins, their blood glucose concentrations were measured and the smallest values were taken. The compounds of […] were dissolved in 30% ethanol until its final concentration became 2 ml/kg, while the control group was orally received equal volume of 30% ethanol.
Significant difference between two groups was determined by ANOVA test, together with a post hoc test using Newman-Keuls test.

[2] = Acute toxicity test on rats, oral; assay type: in vivo; conditions: rat, in vivo, rats 200-250 g, dissolved in ethylacetate, calculated by number of killed animals
Method: (§1) The acute toxicity tests on rats were performed using the compound prepared by the procedure of the Example 1. Mature rats weighing 200-250 g were orally given the compound of the Example 1 dissolved in ethylacetate in parallel with its gradually increasing concentration.

Mature rats = assay: Acute toxicity test on rats, oral; assay type: in vivo; conditions: rats
Method: as §1

[3] = phase II clinical trials; cited from earlier work

| SMILES | inhibition in vivo at 50 mg/kg [1] | also measured |
| --- | --- | --- |
| CCOC(=O)C1(CCCCCCOC(=O)c2cccs2)CO1 (stereo not drawn) [Example 5, Ethyl-2-[6-(2-thiophenecarboxyl)hexyl]-oxirane-2-carboxylic acid] | 16.8% |  |
| CCOC(=O)C1(CCCCCCOCc2ccc(C)s2)CO1 (stereo not drawn) [Example 14, Ethyl-2-[6-(5-methyl-2-thiophenemethoxy)hexyl]oxirane-2-carboxylic acid] | 33.7% |  |
| CCOC(=O)C1(CCCCCCOCc2sccc2Cl)CO1 (stereo not drawn) [Example 18, Ethyl-2-[6-(3-chloro-2-thiophenemethoxy)hexyl]oxirane-2-carboxylic acid] | 30.7% |  |
| CCOC(=O)C1(CCCCCCOC(=O)c2cnccn2)CO1 (stereo not drawn) [Example 6, Ethyl-2-[6-(2-pyrazincarboxyl)hexyl]-oxirane-2-carboxylic acid] | 24.1% |  |
| CCOC(=O)C1(CCCCCCOCc2ccc(Cl)s2)CO1 (stereo not drawn) [Example 17, Ethyl-2-[6-(5-chloro-2-thiophenemethoxy)hexyl]oxirane-2-carboxylic acid] | 19.2% |  |
| CCOC(=O)C1(CCCCCCOCc2cccs2)CO1 (stereo not drawn) [Example 11, Ethyl-2-[6-(2-thiophenemethoxy)hexyl]oxirane-2-carboxylic acid] | 75.9% |  |
| CCOC(=O)C1(CCCCCCOC(=O)c2cnc(C)cn2)CO1 (stereo not drawn) [Example 2, Ethyl-2-[6-(5-methyl-2-pyrazincarboxyl)hexyl]-oxirane-2-carboxylic acid] | 28.2% |  |
| CCOC(=O)C1(CCCCCCOCc2ccc(OC)s2)CO1 (stereo not drawn) [Example 13, Ethyl-2-[6-(5-methoxy-2-thiophenemethoxy)hexyl]oxirane-2-carboxylic acid] | 5.9% |  |
| CCOC(=O)C1(CCCCCCOCc2ccc(C)o2)CO1 (stereo not drawn) [Example 15, Ethyl-2-[6-(5-methyl-2-furanmethoxy)hexyl]oxirane-2-carboxylic acid] | 6.8% |  |
| CCOC(=O)C1(CCCCCCOC(=O)c2ccc(Cl)cc2)CO1 (stereo not drawn) [Example 1, Ethyl-2-[6-(4-chlorophenylcarboxyl)hexyl]-oxirane-2-carboxylic acid] | 11.8% | LD50 [2]: 487 mg/kg; number of killed animals/number of animals per group (Mature rats; dose 160 mg/kg): 0/10; number of killed animals/number of animals per group (Mature rats; dose 300 mg/kg): 1/10; number of killed animals/number of animals per group (Mature rats; dose 400 mg/kg): 2/10; number of killed animals/number of animals per group (Mature rats; dose 500 mg/kg): 5/10; number of killed animals/number of animals per group (Mature rats; dose 600 mg/kg): 8/10 |
| CCOC(=O)C1(CCCCCCOC(=O)c2cncc(Br)c2)CO1 (stereo not drawn) [Example 3, Ethyl-2-[6-(5-bromo-3-pyridincarboxyl)hexyl]-oxirane-2-carboxylic acid] | 8.1% |  |
| CCOC(=O)C1(CCCCCCOC(=O)c2ccc(OC)nc2OC)CO1 (stereo not drawn) [Example 4, Ethyl-2-[6-(2,6-dimethoxy-5-pyridincarboxyl)hexyl]-oxirane-2-carboxylic acid] | 21.6% |  |
| CCOC(=O)[C@@]1(CCCCCCOc2ccc(Cl)cc2)CO1 [etomoxir] |  | side effects associated with prolonged administration [3]: enlarged heart and toxicity in the liver |
| CCOC(=O)C1(CCCCCCOCCc2cccs2)CO1 (stereo not drawn) [Example 16, Ethyl-2-[6-(2-thiophenethoxy)hexyl]oxirane-2-carboxylic acid] | 5.6% |  |
| CCOC(=O)C1(CCCCCCn2nc(C)cc2C)CO1 (stereo not drawn) [Example 12, Ethyl-2-[6-(3,5-dimethylpyrazole)hexyl]oxirane-2-carboxylic acid] | 47% |  |
